Measurements: PubChem BioAssay (NCI)
Several values for one entry are separate records, joined by “and”; a condition that tells them apart may be missing. Equal entries are not always repeated.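 Cells were grown in 96-well plates and exposed to each compound for 48 hours at five concentrations; endpoints were interpolated linearly between bracketing concentrations, or set to the highest concentration if not reached. Here, GI50 denotes the concentration required for 50% inhibition of growth. TGI: concentration producing complete growth inhibition.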

How the values were obtained:
Test in all cases: growth of human tumour cells (NCI), 48 h
[1] = system: T-47D breast
[2] = system: HS 578T breast
[3] = system: MCF7 breast
[4] = system: HOP-92 NSCLC
[5] = system: NCI/ADR-RES ovarian
[6] = system: NCI-H23 lung
[7] = system: BT-549 breast
[8] = system: UACC-257 melanoma
[9] = system: NCI-H226 lung
[10] = system: DU-145 prostate
[11] = system: MDA-MB-435
[12] = system: PC-3 prostate
[13] = system: MDA-MB-231 breast
[14] = system: HCT-116 colon
[15] = system: COLO 205 colon
[16] = system: SF-295 CNS
[17] = system: SK-MEL-5 melanoma
[18] = system: EKVX NSCLC
[19] = system: U251 CNS
[20] = system: SK-MEL-28 melanoma
[21] = system: HCC-2998 colon
[22] = system: TK-10 renal
[23] = system: SK-MEL-2 melanoma
[24] = system: CAKI-1 renal
[25] = system: NCI-H460 lung
[26] = system: RXF 393 renal
[27] = system: SNB-75 CNS
[28] = system: CCRF-CEM leukemia
[29] = system: SF-268 CNS
[30] = system: A549 NSCLC
[31] = system: SK-OV-3 ovarian
[32] = system: OVCAR-5 ovarian
[33] = system: ACHN renal
[34] = system: MALME-3M melanoma
[35] = system: A498 renal
[36] = system: UACC-62 melanoma
[37] = system: M14 melanoma
[38] = system: RPMI-8226 leukemia
[39] = system: SF-539 CNS
[40] = system: KM12 colon
[41] = system: 786-0 renal
[42] = system: SW-620 colon
[43] = system: OVCAR-4 ovarian
[44] = system: OVCAR-8 ovarian
[45] = system: OVCAR-3 ovarian
[46] = system: LOX IMVI melanoma
[47] = system: HCT-15 colon
[48] = system: UO-31 renal
[49] = system: HOP-62 NSCLC
[50] = system: SNB-19 CNS

Which results are given for C/C=C/CC(C)C(O)C1C(=O)NC(CC)C(=O)N(C)CC(=O)N(C)C(CC(C)C)C(=O)NC(C(C)C)C(=O)N(C)C(CC(C)C)C(=O)NC(C)C(=O)NC(C)C(=O)N(C)C(CC(C)C)C(=O)N(C)C(CC(C)C)C(=O)N(C)C(C(C)C)C(=O)N1C (stereo not given)?
GI50 [1]: 0.842 µM; TGI [1]: 5.32 µM; GI50 [2]: 3.36 µM; TGI [2]: 28.2 µM; GI50 [3]: 2.71 µM; TGI [3]: > 32.5 µM; GI50 [4]: 1.09 µM; TGI [4]: 9.02 µM and 14.8 µM; GI50 [5]: 1.44 µM; TGI [5]: > 32.5 µM; GI50 [6]: 1.2 µM; TGI [6]: > 32.5 µM and 28.6 µM; GI50 [7]: 2.02 µM; TGI [7]: 6.92 µM; GI50 [8]: 0.747 µM; TGI [8]: 5.57 µM and 8.67 µM; GI50 [9]: 2.29 µM; TGI [9]: 6.66 µM and 13.8 µM; GI50 [10]: 1.43 µM; TGI [10]: > 32.5 µM; GI50 [11]: 0.609 µM; TGI [11]: 4.62 µM; GI50 [12]: 0.97 µM; TGI [12]: > 32.5 µM; GI50 [13]: 3.79 µM; TGI [13]: 9.57 µM

What does the source list for Cc1ccc(C(C2C(=O)N(C)C(=O)N(C)C2=O)C(F)(F)C(=O)N(C)C)cc1 (stereo not given)?
TGI [14]: > 100 µM; TGI [1]: > 100 µM; TGI [15]: > 100 µM; TGI [16]: > 100 µM; TGI [17]: > 100 µM; TGI [18]: > 100 µM; TGI [3]: > 100 µM; TGI [19]: > 100 µM; TGI [4]: > 100 µM; TGI [20]: > 100 µM; TGI [21]: > 100 µM; TGI [22]: > 100 µM; TGI [23]: > 100 µM; TGI [24]: > 100 µM; TGI [25]: > 100 µM; TGI [26]: > 100 µM; TGI [27]: > 100 µM; TGI [28]: > 100 µM; TGI [5]: > 100 µM; TGI [29]: > 100 µM; TGI [6]: > 100 µM; TGI [30]: > 100 µM; TGI [7]: > 100 µM; TGI [8]: > 100 µM; TGI [9]: > 100 µM; TGI [31]: > 100 µM; TGI [32]: > 100 µM; TGI [33]: > 100 µM; TGI [34]: > 100 µM; TGI [35]: > 100 µM; TGI [36]: > 100 µM; TGI [37]: > 100 µM; TGI [10]: > 100 µM; TGI [38]: > 100 µM; TGI [11]: > 100 µM; TGI [39]: > 100 µM; TGI [12]: > 100 µM; TGI [40]: > 100 µM; TGI [41]: > 100 µM; TGI [42]: > 100 µM; TGI [43]: > 100 µM; TGI [44]: > 100 µM; TGI [45]: > 100 µM; TGI [46]: > 100 µM; TGI [47]: > 100 µM; TGI [48]: > 100 µM; TGI [49]: > 100 µM; TGI [50]: > 100 µM; TGI [13]: > 100 µM
